Source: patent US20100204136A1, “USE OF A PEPTIDE AS A THERAPEUTIC AGENT” (priority 2007, published 2010)

Assays:
MRC-5 cells = settings: human, 6 days
Experimental: For cytotoxicity testing, MRC-5 cells were seeded at 2,500 cells/well in 96 well plates using growth medium. […] The following day, peptide was added and tested in duplicates. After a 6 days incubation period, cell viability was measured using CellTiter 96 Solution (Promega). Plates were incubated for additional 4 hours at 37° C. Adhesive plate sealers were used in place of lids, the sealed plates were inverted several times to mix the soluble formazan product and the plate was read spectrophotometrically at 490/560 nm with a Molecular Devices Vmax plate reader.

HIV-1IIIB = experiment: HIV-1 antiviral assay (CPE reduction, MTS); type: cell-based; settings: peptide 10 micrograms per ml; 6 days post-infection
CEM-SS cells = experiment: Cytotoxicity in HIV-1 assay (MTS cell viability); settings: peptide 10 micrograms per ml
HepG2-2.2.15 cells = experiment: Cytotoxicity in HBV assay (dye uptake cell viability); type: cell-based; settings: test peptide 10 micrograms per ml

Nc1nc(O)c2ncn(COC(CO)CO)c2n1 [Ganciclovir]
% Cell viability (MRC-5 cells): 100%

Cc1cn([C@H]2C[C@H](N=[N+]=[N-])[C@@H](CO)O2)c(=O)[nH]c1=O [AZT]
% CPE reduction in HIV-1 infected CEM-SS cells (HIV-1IIIB): 99% | % Cell viability (CEM-SS cells): 97%

Nc1ccn([C@@H]2CS[C@H](CO)O2)c(=O)n1 [Compound 3TC]
% Cell viability (HepG2-2.2.15 cells): 95.8%
